From patent US6451999B2, “1-(3-aminoindazol-5-yl)-3-butyl-cyclic urea useful as a HIV protease inhibitor” (Bristol-Myers Squibb Pharma Company, priority 1996, dated 2002)
Values after ≈ are worked out from the molar mass of the structure shown.

Tests used:
HIV-1 (RF) = experiment: HIV RNA assay: microplate based compound evaluation in HIV-1 infected MT-2 cells; format: cell-based; conditions: Human immunodeficiency virus 1, MT2, 72 h; HIV-1 (RF) infected MT-2 cells, 3 days of culture; virus dilution selected to standardize the inoculum; read-out: IC90 value (concentration of compound required to reduce the HIV RNA level by 90%)
Method: Plasmid pDAB 72 containing both gag and pol sequences of BH10 (bp 113-1816) cloned into PTZ 19R was prepared according to Erickson-Viitanen et al. AIDS Research and Human Retroviruses 1989, 5, 577. The plasmid was linearized with Bam HI prior to the generation of in vitro RNA transcripts using the Riboprobe Gemini system II kit (Promega) with T7 RNA polymerase. Synthesized RNA was purified by treatment with RNase free DNAse (Promega), phenol-chloroform extraction, and ethanol precipitation. RNA transcripts were dissolved in water, and stored at −70° C. The concentration of RNA was determined from the A260.
Biotinylated capture probes were purified by HPLC after synthesis on an Applied Biosystems (Foster City, Calif.) DNA synthesizer by addition of biotin to the 5′ terminal end of the oligonucleotide, using the biotin-phosphoramidite reagent of Cocuzza, Tet. Lett. 1989, 30, 6287. […]
MT-2 and MT-4 cells were maintained in RPMI 1640 supplemented with 5% fetal calf serum (FCS) for MT-2 cells or 10% FCS for MT-4 cells, 2 mM L-glutamine and 50 μg/mL gentamycin, all from Gibco. […] Infectious titers of HIV-1(RF) stocks were 1-3×10^7 PFU (plaque forming units) /mL as measured by plaque assay on MT-2 cells (see below). […]

Row | melting point | IC90 (HIV-1 (RF)) | Structure (SMILES)
1 | 129 to 131 °C | – | CCCCN1C(=O)N(Cc2ccc3[nH]nc(N)c3c2)[C@H](Cc2ccccc2)[C@H](O)[C@@H](O)[C@H]1Cc1ccccc1 [Example 1, (4R,5S,6S,7R)-Hexahydro-1-[5-(3-aminoindazole)methyl]-3-butyl-5,6-dihydroxy-4,7-bis[phenylmethyl]-2H-1,3-diazapin-2-one]
2 | – | 0.2 µg/mL (≈ 0.947 µM) | Nc1ccn([C@H]2CC[C@@H](CO)O2)c(=O)n1 [ddC, dideoxycytidine]
